The source of these data is patent US20240279205A1, “NOVEL BENZIMIDAZOLE DERIVATIVE” (Carna Biosciences, Inc., priority 2020, published 2024).

In the assay the target is T1, human STING (hSTING) (Homo sapiens, UniProt Q86WV6).
T1 construct: host or cells: HEK-Blue ISG cells (HEK293-derived SEAP reporter line)
Briefly: Inhibition test of intracellular human STING (hSTING) pathway using SEAP reporter cells (HEK-Blue ISG), stimulation with Compound 3. Format: cell-based. More on the design: hSTING inhibitory activity: scale not given here. The settings on record: Compound 3 10 nM stimulation, 21 hours; for IC50: read-out: hSTING inhibitory activity. A digest of the protocol:
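HEK-Blue ISG cells with IRF-inducible SEAP reporter, pretreated 1 h with compound (final 0.1 to 10 μM), then stimulated with Compound 3 (final 10 nM) for 21 h at 37° C. Supernatant SEAP measured colorimetrically; IC50 from log-concentration regression, normalized to stimulated (100%) and unstimulated (0%) controls.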

Where only a bound is given, the exact number is not on record here.

T1 sequence (Q86WV6 whole entry H232R): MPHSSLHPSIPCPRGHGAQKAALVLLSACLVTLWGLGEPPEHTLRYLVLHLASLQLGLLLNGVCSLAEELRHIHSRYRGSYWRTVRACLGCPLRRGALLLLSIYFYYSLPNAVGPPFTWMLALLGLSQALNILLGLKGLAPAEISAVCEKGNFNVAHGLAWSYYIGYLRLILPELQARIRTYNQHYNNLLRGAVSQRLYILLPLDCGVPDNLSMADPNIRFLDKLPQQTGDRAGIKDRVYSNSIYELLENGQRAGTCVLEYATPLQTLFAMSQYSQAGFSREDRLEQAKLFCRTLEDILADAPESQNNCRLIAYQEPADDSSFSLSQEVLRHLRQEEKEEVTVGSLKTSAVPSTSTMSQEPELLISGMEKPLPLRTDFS

Take `COCCn1c(Nc2c[nH]c3ccc(Cl)nc23)nc2ccc(Oc3cccnc3)cc21` [Embodiment 207, N-(5-Chloro-1H-pyrrolo[3,2-b]pyridin-3-yl)-1-(2-methylxhetyl)-6-(pyridin-3-yloxy)-1H-benzo[d] imidazol-2-amine]: the IC50 was not below 10 µM.

As to `CC(C)Oc1ccc2nc(Nc3c[nH]c4ccc(Cl)nc34)n(C)c2c1` [Embodiment 209, N-(5-Chloro-1H-pyrrolo[3,2-b]pyridin-3-yl)-6-isopropoxy-1-methyl-1H-benzo[d]imidazol-2-amine], the IC50 was in the range of 1 to 10 µM.

In the case of `Cn1c(Nc2c[nH]c3ccc(Cl)nc23)nc2ccc(OC(F)(F)F)cc21` [Embodiment 211, N-(5-Chloro-1H-pyrrolo[3,2-b]pyridin-3-yl)-1-methyl-6-(trifluoromethoxy)-1H-benzo[d] imidazol-2-amine], the IC50 is not below 10 µM.

As to `Cn1cnc(-n2c(Nc3c[nH]c4ccc(Cl)cc34)nc3cc(C(F)(F)F)ccc32)c1` [Embodiment 227, N-(5-Chloro-1H-indol-3-yl)-1-(1-methyl-1H-imidazol-4-yl)-5-(trifluoromethyl)-1H-benzo[d] imidazole-2-amine], the IC50 is not below 10 µM.

Consider `CN(C)C(=O)Cn1c(Nc2c[nH]c3ccc(Cl)cc23)nc2cc(C(F)(F)F)ccc21` [Embodiment 229, 2-{2-[(5-chloro-1H-indol-3-yl)amino]-5-(trifluoromethyl)-1H-benzo [d]imidazol-1-yl}-N,N-dimethyl Acetamide], for which the IC50 was not below 10 µM.

With `CS(=O)(=O)CCn1c(Nc2c[nH]c3ccc(Cl)cc23)nc2cc(C(F)(F)F)ccc21` [Embodiment 230, N-(5-Chloro-1H-indol-3-yl)-1-[2-(methylsulfonyl)ethyl]-5-(trifluoromethyl)-1H-benzo[d] imidazol-2-amine], the IC50 is 1 to 10 µM.

For `CC(C)(O)Cn1c(Nc2c[nH]c3ccc(Cl)cc23)nc2cc(C(F)(F)F)ccc21` [Embodiment 234, 1-{2-[(5-chloro-1H-indol-3-yl)amino]-5-(trifluoromethyl)-1H-benzo [d]imidazol-1-yl}-2-methylpropane-2-oar], the IC50 is 1 to 10 µM.

On to `FC(F)(F)c1ccc2c(c1)nc(Nc1c[nH]c3ccc(Cl)cc13)n2N1CCOCC1` [Embodiment 235, N-(5-Chloro-1H-indol-3-yl)-1-morpholino-5-(trifluoromethyl)-1H-benzo[d]imidazol-2-amine], for which the IC50 was in the range of 1 to 10 µM.

With `C[C@@H](O)Cn1c(Nc2c[nH]c3ccc(Cl)cc23)nc2cc(C(F)(F)F)ccc21` [Embodiment 239, (R)-1-{2-[(5-chloro-1H-indol-3-yl)amino]-5-(trifluoromethyl)-1H-benzo[d]imidazol-1-yl}propan-2-oar], the hSTING inhibitory activity result was “* *”.

For the compound `C[C@H](O)Cn1c(Nc2c[nH]c3ccc(Cl)cc23)nc2cc(C(F)(F)F)ccc21` [Embodiment 243, (S)-1-{2-[(5-chloro-1H-indol-3-yl)amino]-5-(trifluoromethyl)-1H-benzo[d]imidazol-1-yl}propan-2-oar], the hSTING inhibitory activity entry is recorded as “* *”.

With `CNn1c(Nc2c[nH]c3ccc(Cl)cc23)nc2cc(C(F)(F)F)cc(F)c21` [Embodiment 271, N2-(5-Chloro-1H-indol-3-yl)-7-fluoro-N1-methyl-5-(trifluoromethyl)-1H-benzo[d]imidazole-1,2-diamine], the hSTING inhibitory activity result is listed as “* * *”.

As for `CNn1c(Nc2c[nH]c3ccc(F)c(F)c23)nc2cc(C(F)(F)F)cc(F)c21` [Embodiment 272, N2-(4,5-difluoro-1H-indol-3-yl)-7-fluoro-N1-methyl-5-(trifluoromethyl)-1H-benzo[d]imidazole-1,2-diamine], the hSTING inhibitory activity result is “* * *”.

Regarding `CNn1c(Nc2c[nH]c3cc(F)c(F)cc23)nc2cc(C(F)(F)F)cc(F)c21` [Embodiment 273, N2-(5,6-difluoro-1H-indol-3-yl)-7-fluoro-N1-methyl-5-(trifluoromethyl)-1H-benzo[d]imidazole-1,2-diamine], the hSTING inhibitory activity result is “* * *”.
